# In publication PMC9194936, “Preclinical Activity and Pharmacokinetic/Pharmacodynamic Relationship for a Series of Novel Benzenesulfonamide Perforin Inhibitors” (ACS Pharmacology & Translational Science, 2022):
# Values joined by “and” are separate entries in the source; they are usually repeats but may differ in a detail not shown here. Equal entries are not always repeated.
# How the values were obtained:
# [1] = Binding to proteins in KHYG-1 cell media (RPMI with 0.1% BSA) by equilibrium dialysis; type: in vitro ADME; settings: bovine, pH 7.4, read-out: free fraction in the KHYG-1 cell media
# perforin [2] = molecular target: T1, perforin (Mus musculus, UniProt P10820); assay: In vivo perforin inhibition (allogeneic bone marrow transfer assay)
# T1 construct: endogenous in cells; host or cells: recipient cytotoxic lymphocytes (NK/CTL) of wild-type C57BL/6 mice, in vivo
# T1 sequence (P10820 21-554): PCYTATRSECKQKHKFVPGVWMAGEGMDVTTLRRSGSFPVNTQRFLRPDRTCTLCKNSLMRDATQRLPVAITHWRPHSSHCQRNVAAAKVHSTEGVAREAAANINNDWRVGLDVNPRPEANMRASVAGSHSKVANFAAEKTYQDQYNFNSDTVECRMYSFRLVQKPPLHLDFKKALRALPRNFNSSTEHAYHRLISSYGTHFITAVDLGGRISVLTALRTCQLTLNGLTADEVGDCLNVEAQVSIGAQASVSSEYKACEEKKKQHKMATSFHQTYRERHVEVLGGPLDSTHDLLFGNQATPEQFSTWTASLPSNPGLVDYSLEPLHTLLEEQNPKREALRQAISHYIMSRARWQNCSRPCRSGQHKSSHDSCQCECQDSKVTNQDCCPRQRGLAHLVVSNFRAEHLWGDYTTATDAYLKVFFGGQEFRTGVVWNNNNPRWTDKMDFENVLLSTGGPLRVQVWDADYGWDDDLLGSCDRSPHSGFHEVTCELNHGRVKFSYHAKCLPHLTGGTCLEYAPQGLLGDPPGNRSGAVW
# Experimental: This model was selected as a surrogate assay for graft rejection during allogeneic bone marrow/stem cell transplantation to enable rapid testing of perforin inhibition in vivo. Mice were transplanted with a mixture of equal numbers of allogeneic immunologically mismatched and syngeneic immunologically matched bone marrow. […] Allogeneic cell survival in spleen and peripheral blood was determined 24 h after transplant, using C57BL/6 perforin-deficient mice (100% perforin inhibition) and untreated C57BL/6 mice (0% perforin inhibition) as controls.
# Compounds were tested for in vivo efficacy as described previously.[14] Age- (8–12 weeks) and sex-matched wild-type (H-2D^b, CD45.2^+) or perforin-deficient C57BL/6 mice (C57BL/6-Prf1^tm1Sdz/J; H-2D^b, CD45.2^+) received 12 ×10^6 bone marrow cells from both allogeneic BALB/c (H-2D^d) MHC-mismatched and syngeneic C57BL/6 (H-2D^b) MHC-matched mice (24 × 10^6 cells total). The wild-type recipient mice were treated with perforin inhibitor compounds by intraperitoneal injection in 20% hydroxypropyl-β-cyclodextrin vehicle (10 mL/kg), or with vehicle alone; perforin-deficient mice remained untreated. The mice were euthanized 24 h after bone marrow transfer for peripheral blood mononuclear cell (PBMC) and spleen collection.
# Throughout the study, we utilized two strategies to distinguish between recipient, donor allogeneic, and donor syngeneic cells based on either fluorescent labeling prior to transplant or congenic marker expression (CD45.1/CD45.2). In the fluorescent dye approach, allogeneic wild-type BALB/c (H-2D^d, CD45.2^+) bone marrow was labeled with 1 μM carboxyfluorescein succinimidyl ester (CFSE) prior to mixing with syngeneic bone marrow from C57BL/6 congenic mice (CD45.1^+). Twenty-four hours after cell transfer, the harvested cells were stained with anti-CD45.1-phycoerythrin and anti-TER119-allophycocyanin monoclonal antibodies (BioLegend, San Diego, CA). TER119 was used for erythroid exclusion prior to the identification of allogeneic (CFSE^+) and syngeneic (CD45.1^+) donor cells. Using a second purely congenic marker approach, allogeneic BALB/c congenic (H-2D^d, CD45.1^+) bone marrow was mixed with syngeneic C57BL/6 double congenic (H-2D^b, CD45.1^+CD45.2^+) bone marrow prior to transfer. The harvested cells were stained with anti-CD45.1-phycoerythrin, anti-CD45.2-phycoerythrin-cyanine-7, and anti-TER119-allophycocyanin monoclonal antibodies (BioLegend, San Diego, CA). TER119 was used for erythroid exclusion, prior to identification of allogeneic donor (CD45.1^+), syngeneic donor (CD45.1^+ CD45.2^+), and recipient (CD45.2^+) cells. Dead cells were excluded using 7-aminoactinomycin D. Samples were acquired with an LSR Fortessa (BD Biosciences) and analyzed using FlowJo version 9 software (BD Biosciences). Prism version 9 (GraphPad) was used to calculate CTL indices as the percentage survival of syngeneic donor cells divided by the percentage survival of allogeneic donor cells. […] In vivo perforin inhibition animal experiments were approved by the Animal Ethics Committee of the QIMR Berghofer Medical Research Institute.
# perforin [3] = molecular target: T1, perforin; assay: PK/PD relationship (sigmoid Emax model, regression analysis); settings: in vivo mouse model
# Experimental: The relationship between efficacy (% perforin inhibition in peripheral blood and spleen) and pharmacokinetics was determined for different pharmacokinetic properties (Figure 5A,B). […] Simply maintaining the concentrations above a minimal level without reaching very high levels was not sufficient for perforin inhibition, as exemplified by three doses at 80 mg/kg.
# The normality of in vivo perforin inhibition data was checked by Shapiro–Wilk and D’Agostino–Pearson normality tests. Statistical tests were performed by one-way ANOVA with multiple comparisons made to the vehicle-treated group and corrected using Dunnett’s post-test analysis. A comparison of measured and simulated plasma concentrations was analyzed by linear regression. Efficacy data were correlated to pharmacokinetic data using a sigmoid Emax model and regression analysis. All statistical analyses were conducted using Prism v8 or 9.
# recombinant perforin = test system: recombinant perforin; set-up: method as in PMID 28582670, PMID 28110869; settings: lytic activity of recombinant perforin against Jurkat T leukemia cells; cited from earlier work
# [4] = KHYG-1 viability (Trypan Blue exclusion); type: cell-based; settings: human, KHYG-1 NK cells, at 20 μM
# Experimental: The toxicity of perforin inhibitors toward KHYG-1 NK cells was determined as described previously.[14] KHYG-1 cells were preincubated with compounds in the same manner as the KHYG-1 cytotoxicity assay prior to the addition of RPMI with 0.1% BSA and incubation at 37 °C for 4 h. The cells were then washed and resuspended in complete medium and incubated for a further 24 h at 37 °C, after which cell viability was assessed by Trypan Blue (Thermo Fisher Scientific) exclusion.
# [5] = 80 mg/kg bid (0 and 18 h), pooled with pretransplant dosing data
# [6] = 120 mg/kg bid (0 and 18 h), pooled with pretransplant dosing data
# [7] = 160 mg/kg bid (0 and 18 h), pooled with pretransplant dosing data
# [8] = 160 mg/kg qd x 4 (0, 24, 48 h prior to and 18 h after transfer), 24 h after transplant
smiles,measurement,setting,value
"CN1Cc2cc(-c3ccc(-c4cncc(NS(=O)(=O)c5ccccc5[N+](=O)[O-])c4)s3)ccc2C1=O [Compound 1, N-{5-[5-(2-methyl-1-oxo-2,3-dihydro-1H-isoindol-5-yl)-2-thienyl]-3-pyridinyl}-2-nitrobenzenesulfonamide]","fraction unbound at 6 h, 10 μM",[1],0.144
same,"% perforin inhibition, blood",perforin [2]; [5],-0.71%
same,"% perforin inhibition, spleen",perforin [2]; [5],7.66%
same,"% perforin inhibition, blood",perforin [2]; 80 mg/kg qd (one dose at 0 h),-5.19%
same,"% perforin inhibition, spleen",perforin [2]; 80 mg/kg qd (one dose at 0 h),-4.19%
same,"% perforin inhibition, spleen","perforin [2]; 80 mg/kg qd x 4 (0, 24, 48 h prior to and 18 h after transfer), 24 h after transplant",7.66% and 7%
same,"% perforin inhibition, blood","perforin [2]; 80 mg/kg qd x 4, 24 h after transplant",26.33% and 26%
same,"% perforin inhibition, blood","perforin [2]; 80 mg/kg tid (0, 9 and 18 h)",-1.34%
same,"% perforin inhibition, spleen","perforin [2]; 80 mg/kg tid (0, 9 and 18 h)",-1.98%
same,"% perforin inhibition, blood",perforin [2]; [6],43.66%
same,"% perforin inhibition, spleen",perforin [2]; [6],30.50%
same,perforin inhibition in vivo (in words),perforin [2]; 120 mg/kg followed by two doses of 80 mg/kg,moderate perforin inhibition
same,"% perforin inhibition, blood",perforin [2]; 120 mg/kg qd (one dose at 0 h),17.84%
same,"% perforin inhibition, spleen",perforin [2]; 120 mg/kg qd (one dose at 0 h),16.71%
same,"% perforin inhibition, spleen","perforin [2]; 120 mg/kg qd x 4 (0, 24, 48 h prior to and 18 h after transfer), 24 h after transplant",39.90% and 40%
same,"% perforin inhibition, blood","perforin [2]; 120 mg/kg qd x 4, 24 h after transplant",44.84% and 45%
same,"% perforin inhibition, blood","perforin [2]; 120 mg/kg tid (0, 9 and 18 h)",69.14%
same,"% perforin inhibition, spleen","perforin [2]; 120 mg/kg tid (0, 9 and 18 h)",40.42%
same,"% perforin inhibition, blood",perforin [2]; [7],56.50%
same,"% perforin inhibition, spleen",perforin [2]; [7],42.46%
same,"% perforin inhibition, spleen",perforin [2]; [8],48.20% and 48%
same,"% perforin inhibition, blood","perforin [2]; 160 mg/kg qd x 4, 24 h after transplant",55.47% and 55%
same,"% perforin inhibition, blood",perforin [2]; 120+80+80 mg/kg tid,34.71%
same,"% perforin inhibition, spleen",perforin [2]; 120+80+80 mg/kg tid,15.22%
same,perforin inhibition in vivo (in words),perforin [2]; three doses of 80 mg/kg,ineffective
same,perforin inhibition in vivo (in words),perforin [2]; three doses of 120 mg/kg,highly active
same,total plasma concentration to be continuously maintained for optimal perforin inhibition,perforin [3],> 900 µM
same,IC50,recombinant perforin,6.65 µM
"O=C1NCc2ccc(-c3ccc(-c4cncc(NS(=O)(=O)c5ccc(F)cc5F)c4)s3)cc21 [Compound 7, 2,4-difluoro-N-{5-[5-(3-oxo-2,3-dihydro-1H-isoindol-5-yl)-2-thienyl]-3-pyridinyl}benzenesulfonamide]","viability at 24 h, 20 µM",[4],96 ± 6%
same,"% perforin inhibition, spleen",perforin [2]; [8],26.55%
same,IC50,recombinant perforin,4.15 µM
